Data reported in patent US8841233B2, “Herbicidal compositions comprising 4-amino-3-chloro-5-fluoro-6-(4-chloro-2-fluoro-3-methoxyphenyl) pyridine-2-carboxylic acid or a derivative thereof and 4-hydroxyphenyl-pyruvate dioxygenase (HPPD) inhibitors” (Dow Agrosciences LLC, priority 2012, dated 2014).
Values joined by “and” are separate entries in the source; they are usually repeats but may differ in a detail not shown here. Equal values may be shown once.

What was measured:
CYPRO = experiment: In-water applied weed control, transplanted paddy rice, greenhouse (Example II); assay type: in vivo, Cyperus rotundus L.
Protocol: Evaluation of in-Water Applied Herbicidal Mixtures for Weed Control in Transplanted Paddy Rice
Weed seeds or nutlets of the desired test plant species were planted in puddled soil (mud) prepared by mixing a shredded, non-sterilized mineral soil (50.5 percent silt, 25.5 percent clay, and 24 percent sand, with a pH of about 7.6 and an organic matter content of about 2.9 percent) and water at a 1:1 volumetric ratio. The prepared mud was dispensed in 365 mL aliquots into 16-ounce (oz.) non-perforated plastic pots with a surface area of 86.59 square centimeters (cm^2) leaving a headspace of 3 centimeters (cm) in each pot. Mud was allowed to dry overnight prior to planting or transplanting. Rice seeds were planted in Sun Gro MetroMix® 306 planting mixture, which typically has a pH of 6.0 to 6.8 and an organic matter content of about 30 percent, in plastic plug trays. Seedlings at the second or third leaf stage of growth were transplanted into 840 mL of mud contained in 32-oz. non-perforated plastic pots with a surface area of 86.59 cm^2 4 days prior to herbicide application. The paddy was created by filling the headspace of the pots with 2.5 to 3 cm of water. When required to ensure good germination and healthy plants, a fungicide treatment and/or other chemical or physical treatment was applied. The plants were grown for 4-22 days in a greenhouse with an approximate 14 h photoperiod which was maintained at about 29′C during the day and 26° C. during the night. Nutrients were added as Osmocote® (19:6:12, N:P:K+ minor nutrients) at 2 g per 16-oz. pot and 4 g per 32-oz. pot. Water was added on a regular basis to maintain the paddy flood, and supplemental lighting was provided with overhead metal halide 1000-Watt lamps as necessary. The plants were employed for testing when they reached the first through fourth true leaf stage.
(§1) Treatments consisted of the acid or esters of 4-amino-3-chloro-5-fluoro-6-(4-chloro-2-fluoro-3-methoxy-phenyl)pyridine-2-carboxylic acid (compound A) each formulated as an SC (suspension concentrate) and various herbicidal components alone and in combination. Forms of compound A were applied on an acid equivalent basis.
(§2) Other herbicidal components were applied on an active ingredient basis and included 4-hydroxyphenyl pyruvate dioxygenase (HPPD)-inhibiting herbicides mesotrione formulated as Callisto®, sulcotrione formulated as Mikado®, pyrazolynate formulated as Sunbird® 10% GR, and benzobicyclon formulated as Benzobicyclon 3.5% or technical material.
Treatment requirements for each compound or herbicidal component were calculated based upon the rates being tested, the concentration of active ingredient or acid equivalent in the formulation, an application volume of 2 mL per component per pot, and an application area of 86.59 cm^2 per pot.
For formulated compounds, a measured amount was placed in an individual 100 or 200 mL glass vial and was dissolved in a volume of 1.25% (v/v) Agri-Dex® crop oil concentrate to obtain application solutions.
For technical grade compounds, a weighed amount was placed in an individual 100 to 200 mL glass vial and was dissolved in a volume of acetone to obtain concentrated stock solutions. […] The concentrated stock solutions obtained were diluted with an equivalent volume of an aqueous mixture containing 2.5% (v/v) crop oil concentrate so that the final application solutions contained 1.25% (v/v) crop oil concentrate.
Applications were made by injecting with a pipetter appropriate amounts of the application solutions, individually and sequentially, into the aqueous layer of the paddy. Control plants were treated in the same manner with the solvent blank. Applications were made so that all treated plant material received the same concentrations of acetone and crop oil concentrate.
The treated plants and control plants were placed in a greenhouse as described above and water was added as needed to maintain a paddy flood. […]

SCPJU = experiment: Post-emergence foliar-applied weed control, greenhouse (Example I); assay type: in vivo, Schoenoplectus juncoides (Roxb.) Palla
Source text: Evaluation of Post-emergence Foliar-Applied Herbicidal Mixtures for Weed Control in Direct Seeded Rice
Seeds or nutlets of the desired test plant species were planted in a soil matrix prepared by mixing a loam or sandy loam soil (e.g., 28.6 percent silt, 18.8 percent clay, and 52.6 percent sand, with a pH of about 5.8 and an organic matter content of about 1.8 percent) and calcareous grit in an 80 to 20 ratio. The soil matrix was contained in plastic pots with a volume of 1 quart and a surface area of 83.6 square centimeters (cm^2). When required to ensure good germination and healthy plants, a fungicide treatment and/or other chemical or physical treatment was applied. The plants were grown for 8-22 days in a greenhouse with an approximate 14 h photoperiod which was maintained at about 29° C. during the day and 26° C. during the night. Nutrients (Peters Excel® 15-5-15 5-Ca 2-Mg and iron chelate) were applied in the irrigation solution as needed and water was added on a regular basis. Supplemental lighting was provided with overhead metal halide 1000-Watt lamps as necessary. The plants were employed for testing when they reached the first through fourth true leaf stage.
as §1, with “(Compound A),” for “(compound A)”, “concentrate),” for “concentrate)”, “Compound” for “compound”
as §2, with “3.5%.” for “3.5% or technical material.”
Treatment requirements were calculated based upon the rates being tested, the concentration of active ingredient or acid equivalent in the formulation, and a 12 mL application volume at a rate of 187 L/ha.
For treatments comprised of formulated compounds, measured amounts of compounds were placed individually in 25 mL glass vials and diluted in a volume of 1.25% (v/v) Agri-Dex® crop oil concentrated to obtain 12× stock solutions. […] Application solutions were prepared by adding an appropriate amount of each stock solution (e.g., 1 mL) and diluted to the appropriate final concentrations with the addition of 10 mL of an aqueous mixture of 1.25% (v/v) crop oil concentrate so that the final spray solutions contained 1.25+/−0.05% (v/v) crop oil concentrate.
For treatments comprised of formulated and technical compounds, weighed amounts of the technical materials were placed individually in 25 mL glass vials and dissolved in a volume of 97:3 v/v acetone/DMSO to obtain 12× stock solutions, and measured amounts of the formulated compounds were placed individually in 25 mL glass vials and diluted in a volume of 1.5% (v/v) crop oil concentrate or water to obtain 12× stock solutions. […] Application solutions were prepared by adding an appropriate amount of each stock solution (e.g., 1 mL) and diluted to the appropriate final concentrations with the addition of an appropriate amount of an aqueous mixture of 1.5% (v/v) crop oil concentrate so that the final spray solutions contained 1.25% (v/v) crop oil concentrate. As required, additional water and/or 97:3 v/v acetone/DMSO was added to individual application solutions so that the final acetone and DMSO concentrations of the application solutions being compared were 8.1% and 0.25%, respectively.
All stock solutions and applications solutions were visually inspected for compound compatibility prior to application. Spray solutions were applied to the plant material with an overhead Mandel track sprayer equipped with a 8002E nozzles calibrated to deliver 187 L/ha over an application area of 0.503 m^2 at a spray height of 18 to 20 inches (46 to 50 cm) above average plant canopy height. […]

| Structure (SMILES) | Visual Weed Control (%) - 22 DAA CYPRO Obs (CYPRO; 10.6 gae/ha) [%] | Visual Weed Control (%) - 22 DAA CYPRO Obs (CYPRO; 21.2 gae/ha) | Visual Weed Control (%) - 22 DAA CYPRO Obs (CYPRO; 42.4 gae/ha) [%] | Visual Weed Control (%) - 22 DAA SCPJU Obs (SCPJU; 5.3 gae/ha) [%] | Visual Weed Control (%) - 22 DAA SCPJU Obs (SCPJU; 10.6 gae/ha) [%] | Visual Weed Control (%) - 21 DAA CYPRO Obs (CYPRO; 17.5 gae/ha) [%] | Visual Weed Control (%) - 20 DAA SCPJU Obs (SCPJU; 4.38 gae/ha) [%] | Visual Weed Control (%) - 20 DAA SCPJU Obs (SCPJU; 8.75 gae/ha) [%] |
| --- | --- | --- | --- | --- | --- | --- | --- | --- |
| COc1c(Cl)ccc(-c2nc(C(=O)O)c(Cl)c(N)c2F)c1F [Compound A Acid, 4-amino-3-chloro-6-(4-chloro-2-fluoro-3-methoxyphenyl)-5-fluoropyridine-2-carboxylic acid] | 0 | 40% and 60% | 90 | 60 | 75 | – | – | – |
| COc1c(Cl)ccc(-c2nc(C(=O)OCc3ccccc3)c(Cl)c(N)c2F)c1F [Compound A Benzyl Ester, benzyl ester of 4-amino-3-chloro-5-fluoro-6-(4-chloro-2-fluoro-3-methoxy-phenyl)pyridine-2-carboxylic acid] | – | – | – | – | – | 10 | 30 | 60 |
